# Results from patent US8309536B2, “Implant improving local bone formation” (priority 2005, dated 2012).
# Where “and” joins values, the source holds several entries; their conditions need not be identical. Equal values may be shown once.
# Experiments:
# [1] = ZA elution from porous tantalum implants in saline, assayed by UV spectrophotometry; type: physicochemical; conditions: for percent of the ZA released: HA-coated implant dosed with 0.05 mg ZA
# Description: Assay of ZA Elution. Assays of ZA in solution were achieved using UV spectrophotometry. Bisphosphonates on their own lack a detectable chromophore, making them difficult to assay by simple conventional analytical methods. However, the metal chelating properties of bisphosphonates are well known. When bisphosphonates complex with certain metal ions, a chromophore with suitable. UV activity for spectrophotometric analysis is created (Ostovic D, Stelmach C, Hulshizer B. Pharmaceutical Research. 10:470-472, 1993). The method for assaying ZA in aqueous-based solutions is based on the formation of a ZA complex with iron (III) ions (Kuljanin J, Jankovic I, Nedeljkovic J, Prstojevic D, Marinkovic V. Journal of Pharmaceutical and Biomedical Analysis. 28:1215-1220, 2002). Of the three components in the prescription drug Zometa™ (ZA, mannitol, and sodium citrate), only ZA forms a complex with iron (III) ions. A standard solution of iron (III) chloride in perchloric acid is added to known concentrations of Zometa™ and the absorbance is measured at 290 nm to create a calibration curve. A highly acidic medium is needed to prevent the hydrolysis of the iron (III) ions. Aliquots of the soak solution from the Zometa™-coated implants can be analyzed by adding the standard iron (III) chloride solution to the soak solution and measuring the absorbance at 290 nm. By measuring the absorbance, the concentration of the sample can be calculated and thus the mass of the drug released from the implant for a given time period can be determined.
# Four porous tantalum implants with and without HA coating were deposited with 0.05 mg of ZA as described. For each implant group, elution characteristics were ascertained by immersing each implant in a test tube containing 5 ml of 0.9% saline at […]. At mutiple test intervals (1 min, 3 min, 5 min, 10 min, 15 min, 30 min, 1 hr, 6 hrs, 12 hrs, 1 day, 3 days, 7 days, 14 days, 21 days, 42 days, 84 days, and 98 days), the implant was removed from the test tube, the saline was thoroughly mixed, and aliquots were removed for ZA assays using UV spectrophotometry. After each time interval for each implant, the implant was placed in a test tube with fresh replacement of 5 ml of saline. This elution model avoided build up of boundary layers and more closely resembled a dynamic system. The 84-day assay time corresponded to the 12 week length of the in vivo implant studies. Assays ceased once the total amount of ZA was released.
# [2] = test system: canine ulnar intramedullary implant model; experiment: Canine ulnar intramedullary implant model, HA coated porous tantalum implants dosed with ZA (local delivery), 12 weeks, quantitative histology; type: in vivo, dog
# Description: In Vivo Studies. The previously described canine ulnar intramedullary implant model was utilized (study approved by institutional review board) (Bobyn J D, Tanzer M, Harvey EJ, Krygier JJ, Little DG. J Bone Joint Surg (Br), In press, 2005). The surgical procedure involved anesthetizing the dog with a general anesthesia and under sterile conditions exposing the proximal ulna. A two-centimeter incision was made over the olecranon process and the triceps tendon was split by sharp dissection down to bone. Under fluoroscopic guidance, a 5.0 mm drill was oriented along the long axis of the ulna and in line with the intramedullary canal. A 5.5 cm long hole was drilled under fluoroscopy to ensure the proper orientation of the drill hole and to prevent cortical penetration. The porous implant was then tapped down the intramedullary canal of the ulna with a punch and mallet. The implant was slightly countersunk to avoid postoperative irritation of the overlying triceps tendon. The wound was irrigated and closed in a standard fashion. The procedure was repeated on the contralateral side. Positioning of the implants inevitably varied somewhat in terms of depth of insertion within the canal and spatial orientation within the canal. […] Each dog received either two control HA coated implants without ZA or two HA coated implants dosed with 0.05 mg ZA. Five control dogs and four with ZA-dosed implants were studied at 12 weeks. This protocol was utilized instead of one with a control and a ZA-dosed implant in each animal because it avoided the possibility of systemic absorption of ZA from one side and influence of a control implant on the other side.
# Histological examination. After sacrifice, the ulnae were harvested, stripped of soft tissue, radiographed and processed for undecalcified hard-section histology (FIG. 6). This involved dehydration in ascending solutions of ethanol, defatting in ether and acetone, and embedding in methylmethacrylate. Each implant was cut transversely into 6 or 7 sections at 7-8 mm intervals. The sections were radiographed and polished, sputter coated with gold-palladium, and imaged with backscattered scanning electron microscopy. For each section, computerized image analysis based on grey level discrimination was used to identify bone and implant and to generate quantitative information on the extent of bone ingrowth, defined as the percentage of the available porosity that was filled with new bone. Also tabulated in each section was the number and size of the individual islands of bone within the implant pores. In sections cut through the ulnar diaphysis, where delineation of the endosteal cortex was clearly evident, the total area of peri-implant bone contained within the intramedullary canal was also tabulated. In these calculations the implant area (and bone within) was not included. For each section, the peri-implant bone was expressed as a percentage of the total peri-implant area within the intramedullary canal (not including the implant).
# Statistical analysis. The quantitative histological data were statistically analyzed using multiple two-level hierarchical models. At the first level of the model, the set of results from the limbs of each dog was assumed to follow a normal distribution with dog-specific means and a global variance parameter. At the second level of the model, the means from each dog in each group (control, ZA-dosed) from the first level followed a second normal distribution, with the mean representing the overall mean for the treatment or control groups and the variance representing the variability within the group. A similar statistical model was also run where the results for each dog were allowed to vary with the distance (section level) along the ulna. […] The mean values and differences between means for control and ZA-dosed implants were estimated with 95% confidence intervals (CI).
# [3] = test system: canine ulnar intramedullary implant model; experiment: Canine ulnar intramedullary implant model, single intravenous dose of ZA, porous tantalum rods implanted for 6 weeks; type: in vivo
# Protocol: The hypothesis that bisphosphonates have a positive effect on net bone growth, particularly into porous implants, was first confirmed by conducting a canine ulnar intramedullary implant model in which porous tantalum rods were implanted for 6 weeks. (Bobyn J D, Tanzer M, Harvey EJ, Krygier JJ, Little DG. J Bone Joint Surg (Br), 2005) Immediately after surgery, seven test animals with 14 ulnar implants were administered a single intravenous dose of 0.1 mg/kg ZA (Novartis Pharma A G, Basel, Switzerland). Because of the systemic exposure of test animals to ZA it was necessary to utilize external control data from a prior experiment (Tanzer M, Kantor S, Bobyn J D. J Arthrop 19:195-199, 2002) for comparisons of bone ingrowth. The mean extent of bone ingrowth was 6.6% for the control implants and 12.2% for the ZA-treated implants, a relative difference of 85% that was statistically significant.
# [4] = test system: canine ulnar intramedullary implant model; experiment: Canine ulnar intramedullary implant model, HA coated porous tantalum implants dosed with ZA (local delivery), 12 weeks, quantitative histology; type: in vivo, dog; conditions: total ZA doses of 0.2 mg and 0.4 mg, relative to 0.05 mg
# [5] = test system: bone resorption; conditions: cited from earlier work; for potency at inhibiting bone resorption relative to second generation bisphosphonates (in words): third generation bisphosphonates which contain a tertiary nitrogen
# [6] = test system: murine (MC3T3) osteoblastic cells; conditions: Peter et al 2004; cited from earlier work
# [7] = test system: human (MG-63) osteoblastic cells; conditions: Peter et al 2004; cited from earlier work
# [8] = test system: distraction osteogenesis; conditions: cited from earlier work
# [9] = test system: regenerate bone / callus; conditions: Smith et al 2003; net bone accumulation due to increased retention of callus; cited from earlier work
# [10] = test system: knee prostheses migration; conditions: early postoperative oral regimen, radiostereometry; cited from earlier work
# [11] = test system: alveolar bone resorption; conditions: local application following periodontal surgery in rats; cited from earlier work
# [12] = test system: soft tissue formation at implant site; conditions: single application via a sponge to an implant site, rat; cited from earlier work
# [13] = individual ZA dogs 1-4, 0.05 mg ZA, 12 weeks
smiles,measurement,setting,value
"O=P(O)(O)C(O)(Cn1ccnc1)P(=O)(O)O [ZA, zoledronic acid]",percent of the ZA released,"[1]; 0.9% saline, after soaking for 6 weeks",~95%
same,percent of the ZA released,"[1]; 0.9% saline, within 1 hour",about 65%
same,"release of zoledronic acid in saline (in words, FIG. 7)","[1]; implants without HA coating compared to those with HA coating, 0.05 mg",rapid and complete release
same,time within which all of the ZA was released,"[1]; non-HA coated porous tantalum implant dosed with 0.05 mg ZA, 0.9% saline",≤ 1 h
same,"more net bone growth into ZA-dosed implants compared with controls, relative","[2]; 0.05 mg ZA, 12 weeks",58%
same,peri-implant bone around ZA-dosed implants relative to controls,"[2]; 0.05 mg ZA, 12 weeks",2.3 times
same,"peri-implant bone on contact radiographs, ZA-dosed vs control implants (in words)","[2]; 0.05 mg ZA, 12 weeks",almost always more dense and/or abundant
same,"relative difference in the size of the bone islands, ZA-dosed vs control","[2]; 0.05 mg ZA, 12 weeks",71%
same,"Bone Island Size, overall Mean (95% CI)","[2]; 0.05 mg ZA, 12 weeks, 54 sections, 8 implants",0.023 (0.016 to 0.031) mm^2
same,"bone islands larger in the ZA-dosed implants than in controls, difference","[2]; 0.05 mg ZA, 12 weeks, 95% CI 0.001 to 0.017",0.009 mm^2
same,"difference of the means of peri-implant bone filling, ZA-dosed vs control","[2]; 0.05 mg ZA, 12 weeks, 95% CI 3.3 to 33.7",18.4%
same,"difference in mean extent of bone ingrowth, ZA-dosed vs control","[2]; 0.05 mg ZA, 12 weeks, 95% CI 3.5 to 11.1",7.3%
same,histologic evidence of cellular toxicity,[2]; 0.05 mg dose,without any histologic evidence of cellular toxicity
same,"Peri-implant bone relative to intramedullary canal size, overall Mean (95% CI)","[2]; HA coated implants dosed with 0.05 mg ZA, 12 weeks, 24 diaphyseal sections, 8 implants",32.2 (21.7 to 43.0) %
same,"Mean extent of bone ingrowth, overall Mean (95% CI)","[2]; HA coated implants dosed with 0.05 mg ZA, 12 weeks, 54 sections, 8 implants",19.8 (16.9 to 22.6) %
same,"# Bone Islands, by dog",[2]; [13],109 and 155 and 206 and 131
same,"Bone Island Size, by dog",[2]; [13],0.033 mm^2 and 0.016 mm^2 (2×) and 0.028 mm^2
same,"Mean extent of bone ingrowth, by dog","[2]; individual ZA dogs 1-4, HA coated implants dosed with 0.05 mg ZA, 12 weeks",16.0% and 20.3% (2×) and 22.6%
same,"Peri-implant bone relative to intramedullary canal size, by dog","[2]; individual ZA dogs 1-4, HA coated implants dosed with 0.05 mg ZA, 12 weeks, diaphyseal sections",19.8% and 38.5% and 30.4% and 40.0%
same,bone formation on increasing the dosage of ZA,"[2]; total ZA doses of 0.2 mg and 0.4 mg, relative to 0.05 mg",more bone formation around and within the implant
same,complications or systemic illness related to the ZA administration,"[2]; two HA coated implants dosed with 0.05 mg ZA per dog, 12 weeks",No dogs had any complications or systemic illness
same,average bone island size larger in the ZA-treated group,[3]; 0.1 mg/kg ZA intravenous,69%
same,"relative difference in bone ingrowth, ZA-treated vs external control implants","[3]; 0.1 mg/kg ZA intravenous, statistically significant",85%
same,mean extent of bone ingrowth,"[3]; single intravenous dose of 0.1 mg/kg ZA, 14 ulnar implants, own earlier published study",12.2%
same,kind of the additional bone formed at higher doses,[4],woven bone
same,potency relative to alendronate,"[5]; Green 2001, Li and Davis 2003",250 times
same,potency relative to pamidronate,"[5]; Green 2001, Li and Davis 2003",100 times
same,potency at inhibiting bone resorption relative to second generation bisphosphonates (in words),[5],even more potent
same,concentration below which ZA can be considered safe for cellular activity,[6],below 10 μM
same,concentration below which ZA can be considered safe for cellular activity,[7],below 10 μM
same,effect on osteopenia and regenerate bone,[8]; one or two doses of ZA,"abolished osteopenia and increased regenerate volume, mineralization and strength"
same,bone formation rate,[9],reduced
NCCC(O)(P(=O)(O)O)P(=O)(O)O [pamidronate],effect on disuse osteopenia and regenerate bone,[8]; single postoperative intravenous dose of pamidronate (3 mg/kg),decreased the disuse osteopenia normally associated with lengthening and increased the amount and density of the regenerate bone
O=P(O)(O)C(Cl)(Cl)P(=O)(O)O [clodronate],effect on migration of knee prostheses,[10],reduced migration of knee prostheses
O=P(O)(O)C(O)(Cc1cccnc1)P(=O)(O)O [risendronate],potency at inhibiting bone resorption relative to second generation bisphosphonates (in words),[5],even more potent
NCCCC(O)(P(=O)(O)O)P(=O)(O)O [alendronate],effect on alveolar bone resorption,[11],reduce alveolar bone resorption
same,effect on soft tissue forming from resorptive remodeling due to repetitive implant motion,[12],reduces the amount of soft tissue
CCCCCN(C)CCC(O)(P(=O)(O)O)P(=O)(O)O [ibandronate],potency at inhibiting bone resorption relative to second generation bisphosphonates (in words),[5],even more potent
